Assay results: ChEMBL document CHEMBL4177620, “A comparative study of warheads for design of cysteine protease inhibitors” (Bioorg Med Chem Lett, 2017)
Active and inactive are the calls of the source. The rule behind the calls is not given here. Non-standard residues stand in square brackets, D forms with d. Residues, ends and D or L forms follow the SMILES beside them. *: point of attachment. Cbz = O=C(OCc1ccccc1)*; Ac3c = NC1(C(=O)O)CC1

Tests used:
[1] = Cytotoxicity against human U2OS cells; format: cell-based
Trypanosoma cruzi = assay: Antitrypanosomal activity against amastigote form of Trypanosoma cruzi Y infected in human U2OS cells; format: functional, organism-based
[2] = target: Cruzipain (Trypanosoma cruzi) (UniProt P25779); assay: Reversible inhibition of recombinant Trypanosoma cruzi cruzain using Z-phe-Arg-7-amido-4-methylcoumarin as substrate by fluorometric method
Chain of Cruzipain (Trypanosoma cruzi) (P25779 123-467 limits assumed): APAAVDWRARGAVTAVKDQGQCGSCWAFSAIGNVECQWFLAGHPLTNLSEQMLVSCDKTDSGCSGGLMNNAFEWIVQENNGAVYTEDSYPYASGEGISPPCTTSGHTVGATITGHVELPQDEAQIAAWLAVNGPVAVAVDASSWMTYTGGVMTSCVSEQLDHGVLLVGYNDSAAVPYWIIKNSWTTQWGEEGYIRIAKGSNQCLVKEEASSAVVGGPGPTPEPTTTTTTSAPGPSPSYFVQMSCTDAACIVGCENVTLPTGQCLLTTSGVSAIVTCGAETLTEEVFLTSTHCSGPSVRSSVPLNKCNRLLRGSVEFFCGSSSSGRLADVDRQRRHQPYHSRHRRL

Cruzipain = Cruzipain (Trypanosoma cruzi, UniProt P25779); assay: Inhibition of recombinant Trypanosoma cruzi cruzain using Z-phe-Arg-7-amido-4-methylcoumarin as substrate by fluorometric method
Chain of Cruzipain (P25779 whole entry): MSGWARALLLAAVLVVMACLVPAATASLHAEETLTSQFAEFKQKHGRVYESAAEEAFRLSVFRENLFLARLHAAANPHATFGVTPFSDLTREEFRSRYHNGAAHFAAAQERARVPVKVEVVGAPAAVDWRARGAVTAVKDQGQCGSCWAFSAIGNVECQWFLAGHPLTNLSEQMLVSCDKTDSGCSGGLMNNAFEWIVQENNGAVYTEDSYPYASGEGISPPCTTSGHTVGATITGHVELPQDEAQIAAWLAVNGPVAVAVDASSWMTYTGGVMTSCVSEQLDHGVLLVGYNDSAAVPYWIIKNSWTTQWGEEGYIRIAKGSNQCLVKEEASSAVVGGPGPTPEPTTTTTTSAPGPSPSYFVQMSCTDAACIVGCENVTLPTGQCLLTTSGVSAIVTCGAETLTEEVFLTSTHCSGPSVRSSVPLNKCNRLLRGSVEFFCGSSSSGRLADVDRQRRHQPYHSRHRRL

[3] = target: Cruzipain (Trypanosoma cruzi) (UniProt P25779); assay: Inhibition of recombinant Trypanosoma cruzi cruzain assessed as dissociation rate constant using Z-phe-Arg-7-amido-4-methylcoumarin as substrate by fluorometric method
[4] = target: Cruzipain (Trypanosoma cruzi) (UniProt P25779); assay: Irreversible inhibition of recombinant Trypanosoma cruzi cruzain using Z-phe-Arg-7-amido-4-methylcoumarin as substrate by fluorometric method
[5] = target: Cruzipain (Trypanosoma cruzi) (UniProt P25779); assay: Ratio of Kinact to Ki for recombinant Trypanosoma cruzi cruzain using Z-phe-Arg-7-amido-4-methylcoumarin as substrate

Row | SMILES | inhibition [2] | koff [3] | inhibition [4] | Ratio [5] | CC50 [1] | EC50 (Trypanosoma cruzi) | Ki (Cruzipain)
1 | Cc1coc(NC(=O)[C@H](Cc2ccccc2)NC(=O)OCc2ccccc2)n1 | – | – | – | – | > 100 µM | 39.8 µM | 25.1 µM
2 | CCOC(=O)/C=C/C1(NC(=O)[C@H](Cc2ccccc2)NC(=O)OCc2ccccc2)CC1 | Active | – | – | – | – | – | 126 µM
3 | CN(C#N)N(C)C(=O)[C@H](Cc1ccccc1)NC(=O)OCc1ccccc1 | Active | 0.011 s⁻¹ | – | – | 10 µM | 5.01 µM | 0.002 µM
4 | CCN(CC)C(=O)/C=C/C1(NC(=O)[C@H](Cc2ccccc2)NC(=O)OCc2ccccc2)CC1 | Active | – | – | – | – | – | 200 µM
5 | N#CC1(NC(=O)[C@H](Cc2ccccc2)NC(=O)OCc2ccccc2)CC1 | – | – | – | – | > 100 µM | > 100 µM | 6.31 µM
6 | O=CC1(NC(=O)[C@H](Cc2ccccc2)NC(=O)OCc2ccccc2)CC1 (Cbz-Phe-[Ac3c]-aldehyde) | – | – | – | – | – | – | 3.98 µM
7 | CC(C)C[C@H](NC(=O)c1cc(C(C)(C)C)nn1C)C(=O)N(C)N(C)C#N | – | – | – | – | – | 12.6 µM | –
8 | O=C(N[C@@H](Cc1ccccc1)C(=O)Nc1cnoc1)OCc1ccccc1 | – | – | – | – | > 100 µM | > 100 µM | 10 µM
9 | CNC(=O)/C=C/C1(NC(=O)[C@H](Cc2ccccc2)NC(=O)OCc2ccccc2)CC1 | Active | – | – | – | – | – | 398 µM
10 | CCOC(=O)/C=C\CNC(=O)[C@H](Cc1ccccc1)NC(=O)OCc1ccccc1 | Active | – | – | – | – | – | 6.31 µM
11 | CCOC(=O)/C=C/CNC(=O)[C@H](Cc1ccccc1)NC(=O)OCc1ccccc1 | – | – | Active | 9.8 ×10³ /s/M | – | – | 1.58 µM

More lines, main results first:

Row | inhibition [2] | koff [3] | inhibition [4] | Ratio [5] | SMILES | CC50 [1] | EC50 (Trypanosoma cruzi) | Ki (Cruzipain)
12 | Active | – | – | – | N#CCNC(=O)[C@H](Cc1ccccc1)NC(=O)OCc1ccccc1 | > 100 µM | > 100 µM | –
13 | Active | – | – | – | O=C(N[C@@H](Cc1ccccc1)C(=O)NCC=NO)OCc1ccccc1 | – | – | 0.1 µM
14 | Active | – | – | – | O=CCNC(=O)[C@H](Cc1ccccc1)NC(=O)OCc1ccccc1 (Cbz-Phe-Gly-aldehyde) | – | – | 0.00794 µM
15 | – | 0.012 s⁻¹ | – | – | CN(C#N)N(C)C(=O)[C@H](Cc1ccccc1)NC(=O)c1cc(C(C)(C)C)nn1C | – | – | 0.00158 µM
16 | Active | 0.0053 s⁻¹ | – | – | CC(C)C[C@H](NC(=O)OC(C)(C)C)C(=O)N(C)N(C)C#N | 50.1 µM | 39.8 µM | 0.01 µM
